In paper PMC7435865, “Antinociceptive and Cytotoxic Activity of Opioid Peptides with Hydrazone and Hydrazide Moieties at the C-Terminus” (Molecules, 2020):
Values joined by “and” are separate entries in the source; they are usually repeats but may differ in a detail not shown here. Equal values may be shown once.

Experiments:
µ opioid receptor (MOR) = molecular target: T1, µ opioid receptor (MOR) (Rattus norvegicus, UniProt P33535); design: method as in PMID 28105278; conditions: rat brain homogenate; previously reported ref 33; read-out: MOR IC50 ± SEM; cited from earlier work
T1 construct: Membrane fractions of rat brain homogenate were incubated at 25 °C for 60 min in the presence of radioligands; from tissue; host or cells: rat brain (membrane fractions of homogenate)

male Wistar rats = tested on: male Wistar rats; design: method as in PMID 28105278; conditions: already published ref 33, cited from earlier work
[1] = tested on: MeW155 human melanoma cells; assay: melanoma cell number in culture after incubation with compound; format: cell-based; conditions: 50 µM, 96 h incubation
Method: The determination was performed by counting the cells of the MeW155 cell line after incubating them with 50 µM of the tested compounds.
The cells were plated in 24-well plates (5000 cells per well) and incubated for 24 h in Eagle’s medium containing 10% fetal bovine serum and 1% solution of penicillin and streptomycin. […] Control cells were treated with 1% DMSO only. After 96 h of incubation, the cell suspension was first lysed in lysis buffer (ReagentA, ChemoMetec A/S) and then stabilized in stabilization buffer (ReagentB, ChemoMetec A/S). The number of […] was quantified in a propidium iodide cassette with the use of a NucleoCounter® NC-100™ (ChemoMetec A/S) cell counter. The tests were performed in triplicate. The results were normalized so that the values obtained for the control were 100%.

T1 sequence (P33535 whole entry): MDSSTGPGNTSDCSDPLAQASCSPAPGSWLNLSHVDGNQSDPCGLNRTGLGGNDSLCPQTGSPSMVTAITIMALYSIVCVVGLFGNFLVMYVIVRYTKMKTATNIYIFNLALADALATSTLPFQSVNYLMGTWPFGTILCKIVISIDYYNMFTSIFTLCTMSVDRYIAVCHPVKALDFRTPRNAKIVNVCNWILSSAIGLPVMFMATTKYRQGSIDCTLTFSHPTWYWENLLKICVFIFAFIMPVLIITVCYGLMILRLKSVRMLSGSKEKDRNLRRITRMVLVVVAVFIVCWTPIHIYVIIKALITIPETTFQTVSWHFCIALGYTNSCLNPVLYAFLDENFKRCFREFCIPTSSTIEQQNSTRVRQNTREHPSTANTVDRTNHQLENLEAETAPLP

H-Tyr-D-Ala-Gly-Phe-NH-N=CH-3,5-(CF3)2Ph [1a]
IC50 (µ opioid receptor (MOR)): 12.7 ± 0.75 nM | antinociceptive effect, % of maximal possible effect (male Wistar rats; 0.5 nmol/rat i.t., 15 min after injection): ~ 80 % MPE and 80 ± 9 % MPE | area under the time course curve (AUC) of analgesic effect (male Wistar rats; 0.5 nmol/rat i.t.): 4483 ± 592 units | ED50 ± SEM (male Wistar rats; tail flick, i.t.): 0.18 ± 0.05 nmol/rat | effect on number of melanoma cells (in words) [1]: significantly decrease the number of melanoma cells | number of MeW155 cells, % of the control value [1]: 39 ± 4 % of the control
